Assay [1] deals with T1, thromboxane receptor E94V (Valine 94) (Homo sapiens, UniProt P21731, E94V).
T1 construct: expressed in transfected cells; host or cells: NIH-3T3
The assay can be described thus: R-SAT functional assay, thromboxane receptor E94V. The assay is classed as cell-based. The following applies: shift in functional potency, Valine 94 vs Glutamine 94; Table 27.

Assay [2] has as its target T2, thromboxane receptor V80E (Glutamic Acid 80) (Homo sapiens, UniProt P21731, V80E).
T2 construct: expressed in transfected cells; host or cells: NIH-3T3
The assay can be described thus: R-SAT functional assay, thromboxane receptor V80E. It is filed as cell-based. The note with it: shift in functional potency, Glutamic Acid 80 vs Valine 80; Table 26.

For assay [3], the target named is T3, thromboxane receptor V176E (Glutamic Acid 176) (Homo sapiens, UniProt P21731, V176E).
T3 construct: expressed in transfected cells; host or cells: NIH-3T3
Kind of assay: R-SAT functional assay, thromboxane receptor V176E. The assay is classed as cell-based. The following applies: shift in functional potency, Glutamic Acid 176 vs Valine 176.

The target of assay [4] is Cholecystokinin B receptor, wild type (Leucine 224) (UniProt P32239). The assay can be described thus: cell-based or functional assay.
The target in assay [5] is Cholecystokinin B receptor L224Q variant (Glutamine 224) (UniProt P32239). The assay can be described thus: cell-based or functional assay.
Cholecystokinin B receptor L224Q variant (Glutamine 224), sequence (P32239 whole entry L224Q): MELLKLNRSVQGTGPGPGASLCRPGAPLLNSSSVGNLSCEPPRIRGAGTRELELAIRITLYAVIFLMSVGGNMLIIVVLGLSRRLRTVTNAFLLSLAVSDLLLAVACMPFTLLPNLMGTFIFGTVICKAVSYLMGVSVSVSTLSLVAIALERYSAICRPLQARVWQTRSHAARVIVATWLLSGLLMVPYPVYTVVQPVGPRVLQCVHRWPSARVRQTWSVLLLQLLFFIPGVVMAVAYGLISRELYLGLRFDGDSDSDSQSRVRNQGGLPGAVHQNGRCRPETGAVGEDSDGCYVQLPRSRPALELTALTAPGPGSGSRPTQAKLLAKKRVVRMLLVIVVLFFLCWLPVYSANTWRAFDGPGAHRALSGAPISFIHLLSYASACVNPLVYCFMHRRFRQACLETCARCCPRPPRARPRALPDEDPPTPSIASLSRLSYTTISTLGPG

T2 sequence (P21731 whole entry V80E): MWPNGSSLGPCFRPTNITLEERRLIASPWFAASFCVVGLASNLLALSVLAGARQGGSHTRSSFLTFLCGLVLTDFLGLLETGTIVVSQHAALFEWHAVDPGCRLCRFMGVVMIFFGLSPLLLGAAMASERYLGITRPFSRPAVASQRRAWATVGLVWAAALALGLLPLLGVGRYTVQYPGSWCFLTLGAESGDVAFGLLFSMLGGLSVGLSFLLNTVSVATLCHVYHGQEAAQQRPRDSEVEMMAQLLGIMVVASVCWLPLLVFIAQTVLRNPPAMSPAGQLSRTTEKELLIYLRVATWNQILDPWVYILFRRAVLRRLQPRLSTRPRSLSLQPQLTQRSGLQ
T1 sequence (P21731 whole entry E94V): as the sequence (P21731 whole entry V80E) above, with E80V, E94V counted along it
T3 sequence (P21731 whole entry V176E): as the sequence (P21731 whole entry V80E) above, with E80V, V176E counted along it
Cholecystokinin B receptor, wild type (Leucine 224), sequence (P32239 whole entry): as the sequence (P32239 whole entry L224Q) above, with Q224L counted along it

On to `O=C(O)CCC/C=C\C[C@@H]1[C@@H](/C=C/[C@@H](O)COc2ccc(I)cc2)[C@H]2CC[C@@H]1O2` [I-BOP], for which the figures for the FOLD in assay [1], in assay [2] and in assay [3] were 3.5 fold, 93 fold and 13 fold, respectively.
For the compound `CCCCC[C@H](O)/C=C/[C@@H]1[C@@H](C/C=C\CCCC(=O)O)[C@H]2CO[C@@H]1C2` [U46619], the values for the FOLD in assay [1], in assay [2] and in assay [3] were 6.0 fold, 63 fold and 5 fold, respectively.
Consider “Gastrin (from UniProt P01350 76-92) (peptide)”, for which the Ave -Log EC50, R-SAT functional potency in assay [4] is 8.71 -log EC50; in assay [5] it was 9.78 -log EC50. Further, the FOLD (shift in functional potency against wild type; negative = gain of function) in assay [5] is -11.7 fold.

Source of the values: patent publication US7348140B1, “Clinical indications for genotyping polymorphic variants of G-protein coupled receptors” (Acadia Pharmaceuticals, Inc., priority 2001, dated 2008).
